Data on 9 compounds can be found in US9783532B2, “Molecules having certain pesticidal utilities, and intermediates, compositions, and processes related thereto” (Dow AgroSciences LLC, priority 2013, dated 2017).

Assay type in all cases: in vivo
Data set [1] concerns Cabbage Looper (Trichoplusia ni) ("CL"). In words: Bioassay on cabbage looper (CL), 128-well diet tray assay. The following applies: for pest or weed control at 50 µg/cm2: Table ABC (FB), activity rating class, read-out: CL (Biological Results, Insect species); for mortality at 50 µg/cm2: 168 h, 50 μg/cm^2 on artificial diet, second instar CL larvae, 25° C., five to seven days, average of eight wells, read-out: CL % Control (or Mortality) rating. Summed up: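 Second-instar larvae (one to five per well) placed on artificial diet surface-treated with 50 μg/cm^2 compound in 90:10 acetone-water, dried before infestation. Held 25 °C, 14:10 light-dark for five to seven days; percent mortality scored per well and averaged over eight wells.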

The test system of data set [2] is Green Peach Aphid ("GPA") (Myzus persicae). In words: Bioassay on green peach aphid (GPA), foliar spray on cabbage seedlings. The following applies: for GPA (Biological Results, Insect species): Table ABC (FB), activity rating class; for mortality at 200 ppm: Myzus persicae, foliar, 72 h, 200 ppm spray on infested cabbage seedlings, three days, Abbott corrected % control, read-out: GPA % Control (or Mortality) rating. The procedure: Certain molecules disclosed in this document were tested against GPA using procedures described in the following example. In the reporting of the results, the “GPA Rating Table” was used (See Table Section).
Cabbage seedlings grown in 3-inch pots, with 2-3 small (3-5 cm) true leaves, were used as test substrate. The seedlings were infested with 20-50 GPA (wingless adult and nymph stages) one day prior to chemical application. Four pots with individual seedlings were used for each treatment. Test compounds (2 mg) were dissolved in 2 mL of acetone/methanol (1:1) solvent, forming stock solutions of 1000 ppm test compound. The stock solutions were diluted 5× with 0.025% Tween 20 in water to obtain the solution at 200 ppm test compound. A hand-held aspirator-type sprayer was used for spraying a solution to both sides of […] leaves until runoff. Reference plants (solvent check) were sprayed with the diluent only containing 20% by volume of acetone/methanol (1:1) solvent. Treated plants were held in a holding room for three days at approximately 25° C. and ambient relative humidity (RH) prior to grading. Evaluation was conducted by counting the number of live aphids per plant under a microscope. Percent Control was measured by using Abbott's correction formula (W. S. Abbott, “A Method of Computing the Effectiveness of an Insecticide” J. Econ. Entomol. 18 (1925), pp. 265-267) as follows. Corrected % Control=100*(X−Y)/X • where • X=No. of live aphids on solvent check plants and • Y=No. of live aphids on treated plants

For data set [3], the system named is Beet Armyworm (Spodoptera exigua) ("BAW"). In words: Bioassay on beet armyworm (BAW), 128-well diet tray assay. To be noted: for pest or weed control at 50 µg/cm2: Table ABC (FB), activity rating class, read-out: BAW (Biological Results, Insect species); for mortality at 50 µg/cm2: 168 h, 50 μg/cm^2 on artificial diet, second instar BAW larvae, 25° C., five to seven days, average of eight wells, read-out: BAW % Control (or Mortality) rating. Summed up:
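Second-instar larvae (one to five per well) were placed on artificial diet surface-treated with 50 μg/cm^2 compound applied in 90:10 acetone-water and dried, eight wells per compound. Held at 25° C., 14:10 light-dark for five to seven days; percent mortality was scored per well and averaged over the eight wells.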

Data set [4] relates to Yellow Fever Mosquito "YFM" (Aedes aegypti). To be noted: for YFM (Biological Results, Insect species): Table ABC (FB), activity rating class; for YFM % Control (or Mortality) rating: about 1 day-old larvae, 96-well plate, room temperature, 3 days. Summed up: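 About 1 day-old Aedes aegypti larvae in liver-powder water added to wells holding compound diluted from 4000 ppm DMSO stock with 90:10 water:acetone, 6 replicate plates. Plates kept covered at room temperature for 3 days. Wells scored for mortality and reported as rating categories.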

With `CCC(Cc1ccc(-c2ncn(-c3ccc(OC(F)(F)F)cc3)n2)cc1)NC(=O)/N=C1\SCC(=O)N1c1cc(C)ccc1C(C)C` (stereo not drawn) [FB43, (Z)-1-(3-(2-isopropyl-5-methylphenyl)-4-oxothiazolidin-2-ylidene)-3-(1-(4-(1-(4-(trifluoromethoxy)phenyl)-1H-1,2,4-triazol-3-yl)phenyl)butan-2-yl)urea], the pest or weed control at 50 µg/cm2 in data set [1] and in data set [3] was 50 to 100% throughout. For the same compound, in data set [2], the “GPA (Biological Results, Insect species)” value is given as “B (More than 0-Less than 80)”. Also, the “YFM (Biological Results, Insect species)” value in data set [4] is reported as “A (80-100)”.
Consider `CCC(Cc1ccc(-c2ncn(-c3ccc(OC(F)(F)F)cc3)n2)cc1)NC(=O)/N=C1\SCC(=O)N1c1cc(Cl)ccc1C(C)C` (stereo not drawn) [FB44, (Z)-1-(3-(5-chloro-2-isopropylphenyl)-4-oxothiazolidin-2-ylidene)-3-(1-(4-(1-(4-(trifluoromethoxy)phenyl)-1H-1,2,4-triazol-3-yl)phenyl)butan-2-yl)urea], for which the pest or weed control at 50 µg/cm2 in data set [1] and in data set [3] was 50 to 100% throughout. In addition, the “GPA (Biological Results, Insect species)” value in data set [2] is “B (More than 0-Less than 80)”. In addition, the “YFM (Biological Results, Insect species)” value in data set [4] is “A (80-100)”.
The term mortality denotes the percentage killed. Turning to `CC(C)c1cc(F)ccc1N1C(=O)CS/C1=N\C(=O)NCCc1ccc(-c2ncn(-c3ccc(OC(F)(F)F)cc3)n2)cc1` [P28, (Z)-1-(3-(4-fluoro-2-isopropylphenyl)-4-oxothiazolidin-2-ylidene)-3-(4-(1-(4-(trifluoromethoxy)phenyl)-1H-1,2,4-triazol-3-yl)phenethyl)urea], the mortality at 50 µg/cm2 in data set [1] and in data set [3] was 50 to 100% throughout. In addition, in data set [2], the mortality at 200 ppm turned out to be 0%. The “YFM % Control (or Mortality) rating” value in data set [4] is “A (80-100)”.
As to `COc1ccc(N2C(=O)CS/C2=N\C(=O)NCCc2ccc(-c3ncn(-c4ccc(OC(F)(F)F)cc4)n3)cc2)c(C)c1` [P44, (Z)-1-(3-(4-methoxy-2-methylphenyl)-4-oxothiazolidin-2-ylidene)-3-(4-(1-(4-(trifluoromethoxy)phenyl)-1H-1,2,4-triazol-3-yl)phenethyl)urea], the mortality at 50 µg/cm2 in data set [1] and in data set [3] was 50 to 100% throughout. In addition, the mortality at 200 ppm in data set [2] is 0%. In addition, in data set [4], the “YFM % Control (or Mortality) rating” value is “A (80-100)”.
With `CC(C)c1cccc(N2C(=O)CS/C2=N\C(=O)NCCc2ccc(-c3ncn(-c4ccc(OC(F)(F)F)cc4)n3)cc2)c1` [P51, (Z)-1-(3-(3-isopropylphenyl)-4-oxothiazolidin-2-ylidene)-3-(4-(1-(4-(trifluoromethoxy)phenyl)-1H-1,2,4-triazol-3-yl)phenethyl)urea], the mortality at 50 µg/cm2 in data set [1] and in data set [3] was 50 to 100% throughout. The mortality at 200 ppm in data set [2] was 0 to 80%. The “YFM % Control (or Mortality) rating” value in data set [4] was “A (80-100)”.
`Cc1ccc(C(C)C)c(N2C(=O)CS/C2=N\C(=O)NCCc2ccc(-c3ncn(-c4ccc(C(F)(F)F)cc4)n3)cc2)c1` [P52, (Z)-1-(3-(2-isopropyl-5-methylphenyl)-4-oxothiazolidin-2-ylidene)-3-(4-(1-(4-(trifluoromethyl)phenyl)-1H-1,2,4-triazol-3-yl)phenethyl)urea]: the mortality at 50 µg/cm2 in data set [1] and in data set [3] was 50 to 100% in each case. In addition, in data set [2], the mortality at 200 ppm came to 0%. For the same compound, in data set [4], the “YFM % Control (or Mortality) rating” value is listed as “A (80-100)”.
Take `CCc1ccccc1N1C(=O)CS/C1=N\C(=O)NCCCCc1ccc(-c2ncn(-c3ccc(OC(F)(F)F)cc3)n2)cc1` [P145, P522, (Z)-1-(3-(2-ethylphenyl)-4-oxothiazolidin-2-ylidene)-3-(4-(4-(1-(4-(trifluoromethoxy)phenyl)-1H-1,2,4-triazol-3-yl)phenyl)butyl)urea]: the mortality at 50 µg/cm2 in data set [1] and in data set [3] was 50 to 100% each time. Moreover, the mortality at 200 ppm in data set [2] was 0%. In data set [4], the “YFM % Control (or Mortality) rating” value is listed as “A (80-100)”.
On to `Cc1ccc(C(C)C)c(N2C(=O)CS/C2=N\C(=O)NCCCCc2ccc(-c3ncn(-c4ccc(OC(F)(F)F)cc4)n3)cc2)c1` [P150, P363, (Z)-1-(3-(2-isopropyl-5-methylphenyl)-4-oxothiazolidin-2-ylidene)-3-(4-(4-(1-(4-(trifluoromethoxy)phenyl)-1H-1,2,4-triazol-3-yl)phenyl)butyl)urea], for which the mortality at 50 µg/cm2 in data set [1] and in data set [3] was 50 to 100% each time. The mortality at 200 ppm in data set [2] was 0 to 80%. Moreover, the “YFM % Control (or Mortality) rating” value in data set [4] is “A (80-100)”.
Turning to `Cc1ccc(C(C)C)c(N2C(=O)CS/C2=N\C(=O)NCCCCc2ccc(-c3ncn(-c4ccc(C(F)(F)F)cc4)n3)cc2)c1` [P159, (Z)-1-(3-(2-isopropyl-5-methylphenyl)-4-oxothiazolidin-2-ylidene)-34-(4-(4-(1-(4-(trifluoromethyl)phenyl)-1H-1,2,4-triazol-3-yl)phenyl)butyl)urea], the mortality at 50 µg/cm2 in data set [1] and in data set [3] was 50 to 100% each time. For the same compound, the mortality at 200 ppm in data set [2] lay in the range of 0 to 80%. In addition, the “YFM % Control (or Mortality) rating” value in data set [4] was “A (80-100)”.
